Test results published in patent publication US9695395B2, “Generation and maintenance of stem cells” (The Scripps Research Institute, priority 2008, dated 2017).

Assays:
EpiSCs = assay: Conversion of EpiSCs to mESC-like state by chemical compounds (colony morphology, ALP, selection); type: cell-based, murine; conditions: for effect on EpiSCs under mESC culture condition supplemented with LIF: feeder cells, 0.5 μM A-83-01, 0.5 μM PD0325901, 0.1 μM PD173074, 3 μM CHIR99021 where present
Method: EpiSCs differentiated in conventional mESC growth medium supplemented with LIF (bottom left); EpiSCs differentiated in conventional mESC growth medium supplemented with LIF and 0.5 μM MEK inhibitor PD0325901, 0.1 μM FGFR inhibitor PD173074 and 3 μM GSK3 inhibitor CHIR99021 (m/MFGi) (bottom right). […] EpiSCs were trypsinized to single cells, and plated on feeder cells under the mESC self-renewal condition with supplements of the indicated chemical compounds for about 4 days to induce conversion, followed by another 4 days of selection. The culture was subsequently replated and further selected and expanded for another two weeks, during which time stable clones were picked.
To test this hypothesis, EpiSCs were trypsinized to single cells and plated under mESC self-renewal conditions, based on the notion that “converted” mESC-like cells within EpiSC colonies would be captured/selected and expanded under the conditions that promote self-renewal of mESCs but induce differentiation of EpiSCs. […] Given that the “spontaneous” conversion from EpiSCs to mESCs might be very inefficient, a stronger and more stringent differential self-renewal promoting and differentiation inducing condition might be required to select/capture and expand those “rare” converted mESC-like cells from EpiSCs (e.g. achieving cleaner phenotypic distinction and minimizing the overgrowth of differentiated EpiSCs).
EpiSCs (line EpiSC-5, male) were maintained on irradiated CF1 MEFs in human ESC medium supplemented with 10 ng/ml bFGF as described previously (Tesar et al., Nature 448, 196-199, 2007). EpiSCs were passaged every 3-4 days with 1 mg/ml collagenase type IV (Invitrogen). The R1 mESCs were cultured on irradiated CF1 MEFs with conventional mESC growth media, which consist of Knockout DMEM (Invitrogen) supplemented with 20% KSR (Invitrogen), 0.1 mM 2-ME (Sigma-Aldrich), 2 mM L-glutamine (Invitrogen), 0.1 mM NEAA (Invitrogen), and 10^3 units/ml recombinant murine leukemia inhibitory factor (LIF) (ESGRO, Millipore). The mESCs and converted cells were passaged every 3 days as a single cell suspension using 0.05% trypsin/EDTA and seeded at 1.0×10^4 cells per cm^2 for routine culture.

riPSCs = assay: Maintaining the pluripotency of riPSCs in culture with small molecule combinations; type: cell-based, rat; conditions: 0.1 μM, added to the combination of PD0325901 and CHIR99021
Method: FIG. 5A-B. The effects of different small molecule combinations on maintaining the pluripotency of riPSCs in culture. riPSCs were trypsinized into single cells and seeded into 6-well plate at the density of 10^3 cells per well and treated with different inhibitor combinations. Five days latter, ALP staining was performed to visualize the riPSC colonies (A). The ALP positive colonies for each condition were counted from ten random 40× visual fields and the relative colony number was summarized in (B).
WB-F344, a diploid rat liver progenitor cell line (Grisham et al., Proc Soc Exp Biol Med 204, 270-279 (1993)), were transduced with Oct4, Sox2 and Klf4 by retroviruses and then split onto MEF feeder cells in the conventional mESC medium. Compact and alkaline phosphatase (ALP) positive ESC-like colonies were observed 10 days after transduction (the efficiency is about 0.4%) (FIG. 1A). […] Given the notion that small molecules can inhibit key differentiation-inducing pathways, we and others have previously identified and used small molecules to support mESC self-renewal in a more robust manner (Schugar et al., Gene Ther 15, 126-135 (2008); Xu et al., Nat Biotechnol 20, 1261-1264 (2002)). […]

BMP receptors = conditions: Tojo et al., 2005; cited from earlier work

N[C@@H]1C[C@H]1c1ccccc1 [parnate]
effect on EpiSCs under mESC culture condition supplemented with LIF (EpiSCs): form more compact and domed colonies that express ALP | EpiSCs that formed small and compact colonies (EpiSCs; four days of 2 μM parnate treatment, mESC growth condition): 70-80% | cells that survived the selection as domed and ALP positive colonies (EpiSCs; parnate-treated cells selected with 2PD/LIF): roughly 20%

Cc1c[nH]c(-c2cnc(NCCNc3ccc(C#N)cn3)nc2-c2ccc(Cl)cc2Cl)n1 [CHIR99021]
effect of adding CHIR99021 to the 2PD/LIF condition (EpiSCs; 3 μM CHIR99021): did not promote or capture the conversion of EpiSCs to mESC-like state

CCN(CC)CCCCNc1ncc2cc(-c3cc(OC)cc(OC)c3)c(NC(=O)NC(C)(C)C)nc2n1 [PD173074]
effect of including PD173074 in medium (riPSCs): didn't show further benefit

Cc1cccc(-c2nn(C(=S)Nc3ccccc3)cc2-c2ccnc3ccccc23)n1 [A-83-01, 3-(6-Methyl-2-pyridinyl)-N-phenyl-4-(4-quinolinyl)-1H-pyrazole-1-carbothioamide]
cross inhibitory effect on the BMP receptors (BMP receptors): no cross inhibitory effect | effect on EpiSCs under EpiSC/hESC culture condition supplemented with bFGF (EpiSCs; 0.5 μM): induced rapid differentiation of EpiSCs | colonies that could self-renew and maintain ALP activity (EpiSCs; A-83-01 treated colonies exposed to 2PD/LIF condition for selection): more than 50% | effect on EpiSCs under mESC culture condition supplemented with LIF (EpiSCs): form more compact and domed colonies that resemble mESC colony morphology and express ALP
